The values below come from US20220380801A1, “TRIPARTITE SYSTEMS FOR PROTEIN DIMERIZATION AND METHODS OF USE” (priority 2019, published 2022).

Entries after “also recorded” stand apart in the source; their conditions may differ. Read-outs that look alike come from different tables or passages of the source.

For assay [1], the target named is HCV NS3/4A PR (S139A)/PRSIM_23 (Hepatitis C virus subtype 1a, UniProt A8DG50, A1066T/I1043Q/I1044E/L1039E/L1040E/L1047Q/S1165A, form not given). The assay can be described thus: Biacore 8K simeprevir titration of heterodimerisation. The class given is binding. Conditions: read-out: EC50 of simeprevir for induction of heterodimerisation, 40 nM ‘WT’ (S139A) protease, immobilised PRSIM_23. As to the method:
(§1) The effect of simeprevir concentration on the formation of the HCV NS3/4A PR (S139A)/PRSIM binding molecule complex was also measured using the Biacore 8K. PRSIM_57 and PRSIM_23 were covalently immobilised on a CM5 chip surface, as before. Simeprevir was diluted 1:2 (0.0152-300 nM) in 10 mM Hepes pH 7.4, 150 mM NaCl, 0.05% Surfactant P20, 0.3% DMSO at a constant 40 nM HCV NS3/4A PR (S139A) concentration. The samples were flowed over the chip at 50 μl/min using multi cycle kinetics, with 240 sec association and 600 sec dissociation. Regeneration conditions were as described above. Titration curves for the induction of HCV NS3/4A PR (S139A)/PRSIM dimerization by simeprevir were generated. The response for each simeprevir concentration at 225 sec (15 sec before the end of the association) was normalized as a percentage of the response for 300 nM Simeprevir at 225 sec and plotted against the Simeprevir concentration. Each data point represents the mean of 3 independent experiments±s.e.m. The EC50 reported was calculated using nonlinear regression curve fit. The same method was used for the mutant HCV NS3/4A proteases, except simeprevir was diluted 1:2 (0.0457-900 or 0.412-8,100 nM) in 10 mM Hepes pH 7.4, 150 mM NaCl, 0.05% Surfactant P20, 0.82% DMSO at a constant 40 nM HCV NS3/4A PR (S139A) concentration and the response for each simeprevir concentration was normalized against the highest simeprevir concentration.
(In SPR one partner is held on a chip, and binding of the other changes the refractive index at the surface.)

In assay [2] the target is HCV NS3/4A PR (S139A)/PRSIM_57 (Hepatitis C virus subtype 1a, UniProt A8DG50, A1066T/I1043Q/I1044E/L1039E/L1040E/L1047Q/S1165A, form not given). The assay is described as above. The assay is classed as binding. The settings on record: read-out: EC50 of simeprevir for induction of heterodimerisation; 40 nM HCV NS3/4A PR (S139A), immobilised PRSIM_57. The protocol:
as §1

The target in assay [3] is HCV NS3/4A PR D168E/PRSIM_23 (Hepatitis C virus subtype 1a, UniProt A8DG50, D1194E/S1165A, form not given). The description is as above. The assay is classed as binding. The settings on record: read-out: EC50 of simeprevir for induction of heterodimerisation; D168E protease, immobilised PRSIM_23. The protocol: as §1
Assay [4] addresses HCV NS3/4A PR K136D/PRSIM_23 (Hepatitis C virus subtype 1a, UniProt A8DG50, K1162D/S1165A, form not given). Described as above. The assay is classed as binding. As to the method: as §1
Assay [5] addresses HCV NS3/4A PR K136N/PRSIM_23 (Hepatitis C virus subtype 1a, UniProt A8DG50, A1066T/I1043Q/I1044E/K1162N/L1039E/L1040E/L1047Q/S1165A, form not given). The assay is described as above. The assay is classed as binding. The settings on record: read-out: EC50 of simeprevir for induction of heterodimerisation; K136N protease, immobilised PRSIM_23. The protocol:
as §1

The target of assay [6] is S139A HCV NS3/4A PR (Hepatitis C virus subtype 1a, UniProt A8DG50, A1066T/I1043Q/I1044E/L1039E/L1040E/L1047Q/S1165A, form not given). Put plainly: Isothermal calorimetry. The class given is binding. The settings on record: ITC, 37° C. The protocol:
(§2) Isothermal calorimetry (ITC) was carried out using the Auto-ITC 200 (Malvern), with a preliminary injection of 0.4 μl followed by 19 injections of 2 μl each, at 120 second intervals. Rotation of the solution was set to 750 rpm and temperature 37° C. […] The WT was run once; the S139A mutant was run in duplicate. The data were analysed with the ITC-PEAQ software (Malvern) using a one-site binding model and reference subtraction point-by-point.
For orientation: ITC needs no label: the signal is the heat of the interaction.

Assay [7] addresses WT HCV NS3/4A PR (Hepatitis C virus subtype 1a, UniProt A8DG50, A1066T/I1043Q/I1044E/L1039E/L1040E/L1047Q, form not given). Put plainly: Isothermal calorimetry. The class given is binding. Conditions: ITC, 37° C. As to the method: as §2
For assay [8], the system named is Caspase 3 activity in kill switch-transduced HEK293 cells. The assay can be described thus: Kill switch Caspase 3 functional assay. Conditions: relative to non-transduced cells. The class given is cell-based, human. As to the method: Lentiviral particles encoding the kill switch fusion protein (SEQ ID NO: 223) or kill switch S196A mutant fusion protein (SEQ ID NO: 230) were generated using pPACKH1 HIV lentiviral packaging kit (Systems Bioscience), according to manufacturer's instructions. HEK293 cells were transduced for 24 h in the presence of 8 μg/ml polybrene after which cells were changed into fresh growth medium (DMEM+10% foetal bovine serum+1% Non-essential amino acids). 24 h later transduced cells were selected by addition of 2 μg/ml puromycin for 5 days. Before functional testing, transduced cell pools were FACS sorted based on GFP fluorescence to isolate high expressing cell line pools and single cell clones.
Functional Caspase 9 activates Caspase 3, and this proteolytic activity can be determined using cleavage of non-fluorescent substrate DEVD-AMC into cleavage products DEVD and fluorescent AMC, such that AMC fluorescence signal at 430 nm is proportional to Caspase 3 activity. For the Caspase 3 assay, cells were plated in duplicate onto 6 well tissue-culture treated plates. […] Cells lysates were analysed in triplicate using a Caspase 3 assay from BD Biosciences according to manufacturer's instruction with the modification that total protein input was normalised to 50 μg by BCA assay (LifeTechnologies). Fluorescence was determined on an Envision plate reader (PerkinElmer), Ex: 380 nm, Em: 430 nm. […]

In the case of `COc1ccc2c(O[C@@H]3C[C@H]4C(=O)N[C@]5(C(=O)NS(=O)(=O)C6CC6)C[C@H]5/C=C\CCCCN(C)C(=O)[C@@H]4C3)cc(-c3nc(C(C)C)cs3)nc2c1C` [simeprevir], the EC50 worked out at 4.53 nM in assay [1]; 4.03 nM in assay [1] (listed as Simeprevir); 4.57 nM in assay [2]; 3.69 nM in assay [3]; 132 nM in assay [4] (read-out: EC50 of simeprevir for induction of heterodimerisation, K136D protease, immobilised PRSIM_23); 8.06 nM in assay [5]. Moreover, the “EC50 higher than for the wt complex” value in assay [4] (K136D versus wt complex) is listed as roughly 30 fold. Besides, the stoichiometry in assay [6] and in assay [7] was roughly 0.6 Sim/NS3 binding sites throughout. The ΔH in assay [6] and in assay [7] was roughly 22 kcal/mol in each case. Besides, the “Caspase 3 activity” value in assay [8] (10 nM simeprevir 3 h, wt kill switch) is recorded as “significantly (p<0.0001) up-regulated; also recorded: significantly (p<0.0005) upregulated”; in assay [8] (10 nM simeprevir, S196A mutant kill switch), “significantly (p<0.0005) upregulated”.

A word on the EC50: it is the concentration giving half of the maximal effect.
